Assay results taken from US8349309B2, “Polymeric coupling agents and pharmaceutically-active polymers made therefrom” (Interface Biologics Inc., priority 2004, dated 2013).

Tested on: Pseudomonas aeruginosa
Test: Macro-dilution minimum inhibitory concentration (MIC) assay
Format: cell-based
Method: Minimum inhibitory concentration (MIC) assays were used to evaluate the antimicrobial activity of incubating solutions obtained from drug polymer biodegradation studies against P. aeruginosa. Turbidity of each culture was recorded to evaluate the inhibitory properties of degradation solution of drug polymers.
The same NF polymer incubation solutions assayed via HPLC were also evaluated for antimicrobial activity using a biological assay. A macro-dilution minimum inhibitory concentration (MIC) assay was employed to determine the concentration of antimicrobial (norfloxacin) that would inhibit the growth of a pathogen often associated with device-related infections, Pseudomonas aeruginosa. […] Incubation solutions from both enzyme and buffer control treatment of NF polymer were used in a biological assay matrix that was designed to estimate the concentration of norfloxacin as a function of incubation time and treatment.

1-ethyl-6-fluoro-1,4-dihydro-4-oxo-7-piperazine-quinoline-3-carboxylic acid [norfloxacin]
MIC: 0.8 mu g/mL
